Assay results as given in ChEMBL document CHEMBL4138283, “Cyclizidine-Type Alkaloids from Streptomyces sp. HNA39” (J Nat Prod, 2018).

Assays:
[1] = system: PC-3; assay: Cytotoxicity against human PC3 cells by sulforhodamine B assay; assay type: functional, cell-based
[2] = system: HCT-116; assay: Cytotoxicity against human HCT116 cells by sulforhodamine B assay; assay type: functional, cell-based
[3] = molecular target: Rho-associated protein kinase 2 (Homo sapiens, UniProt O75116); assay: Inhibition of ROCK2 (unknown origin) using SKT S2 as substrate measured after 30 mins by HTRF assay
Chain of Rho-associated protein kinase 2 (O75116 whole entry): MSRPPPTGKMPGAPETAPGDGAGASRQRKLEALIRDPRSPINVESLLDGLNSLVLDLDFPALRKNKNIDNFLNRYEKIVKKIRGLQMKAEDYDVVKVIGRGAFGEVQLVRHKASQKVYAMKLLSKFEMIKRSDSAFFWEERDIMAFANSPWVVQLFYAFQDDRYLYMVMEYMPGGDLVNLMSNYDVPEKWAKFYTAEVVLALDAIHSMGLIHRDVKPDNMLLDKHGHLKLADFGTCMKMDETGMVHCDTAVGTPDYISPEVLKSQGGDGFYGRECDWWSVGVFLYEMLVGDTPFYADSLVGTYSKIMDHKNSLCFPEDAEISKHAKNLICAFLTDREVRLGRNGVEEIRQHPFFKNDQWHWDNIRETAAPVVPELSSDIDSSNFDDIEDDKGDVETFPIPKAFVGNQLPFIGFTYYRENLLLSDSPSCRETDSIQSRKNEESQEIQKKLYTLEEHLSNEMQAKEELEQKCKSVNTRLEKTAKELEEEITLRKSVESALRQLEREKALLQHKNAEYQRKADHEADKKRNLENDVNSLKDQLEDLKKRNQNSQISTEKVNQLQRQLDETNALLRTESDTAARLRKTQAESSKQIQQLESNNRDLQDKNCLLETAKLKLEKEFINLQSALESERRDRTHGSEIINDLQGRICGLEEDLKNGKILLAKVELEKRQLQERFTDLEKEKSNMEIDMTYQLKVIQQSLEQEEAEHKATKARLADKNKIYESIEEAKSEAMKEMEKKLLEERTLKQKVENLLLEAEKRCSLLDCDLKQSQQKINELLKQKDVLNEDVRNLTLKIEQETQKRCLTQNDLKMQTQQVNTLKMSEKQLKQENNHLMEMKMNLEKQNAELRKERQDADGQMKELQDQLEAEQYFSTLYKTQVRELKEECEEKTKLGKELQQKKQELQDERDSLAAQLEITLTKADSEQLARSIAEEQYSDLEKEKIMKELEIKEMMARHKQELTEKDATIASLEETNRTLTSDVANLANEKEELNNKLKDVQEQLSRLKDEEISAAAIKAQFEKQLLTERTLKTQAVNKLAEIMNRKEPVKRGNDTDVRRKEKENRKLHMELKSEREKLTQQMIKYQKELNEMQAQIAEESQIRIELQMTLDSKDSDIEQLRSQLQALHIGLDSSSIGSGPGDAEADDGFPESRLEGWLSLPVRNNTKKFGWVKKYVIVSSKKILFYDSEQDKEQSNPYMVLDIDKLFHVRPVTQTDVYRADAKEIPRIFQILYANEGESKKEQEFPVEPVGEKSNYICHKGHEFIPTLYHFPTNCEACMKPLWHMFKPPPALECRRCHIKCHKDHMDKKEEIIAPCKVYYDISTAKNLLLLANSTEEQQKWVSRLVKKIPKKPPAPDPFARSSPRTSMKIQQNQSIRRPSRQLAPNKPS

SMILES	IC50 [3]	IC50 [1]	IC50 [2]
CC(/C=C/C1CC1)=C\[C@H]1[C@H](O)[C@@](C)(O)[C@H]2[C@H](O)[C@@H](O)CCN12	7 µM	0.52 µM	8.3 µM
CC(/C=C/C1CC1)=C\[C@H]1[C@H](O)[C@@](C)(O)[C@H]2[C@@H]3O[C@@H]3CCN12	> 100 µM	23 µM	28 µM
CC(/C=C/C1CC1)=C\[C@H]1[C@H](O)[C@@](C)(O)c2cccc[n+]21	> 100 µM	> 40 µM	> 40 µM
CN[C@@H]1C[C@H]2O[C@@](C)([C@@H]1OC)n1c3ccccc3c3c4c(c5c6ccccc6n2c5c31)C(=O)NC4 [STAUROSPORINE]	–	0.017 µM	–

Now from value to molecule, other results behind:

IC50 [3]	SMILES	IC50 [1]	IC50 [2]
42 µM	C/C(=C\C=C\CCO)C[C@H]1[C@H](O)[C@@](C)(O)[C@H]2[C@H](O)[C@@H](Cl)CCN12	17 µM	> 40 µM
> 100 µM	CC(/C=C/C1CC1)=C\[C@H]1[C@H](O)[C@@](C)(O)[C@H]2[C@H](O)[C@@H](Cl)CCN12	33 µM	40 µM
> 100 µM	C/C(=C\C=C\CCO)C[C@H]1[C@H](O)[C@@](C)(O)[C@H]2CCCCN12	> 40 µM	> 40 µM
> 100 µM	CC(/C=C/C1CC1)=C\[C@H]1[C@H](O)[C@@](C)(O)[C@H]2CCCCN12	> 40 µM	> 40 µM
27 µM	CC(/C=C/C1CC1)=C\[C@H]1[C@H](O)[C@@](C)(O)c2c(O)ccc[n+]21	> 40 µM	> 40 µM
39 µM	C/C(=C/C=C/CCO)C[C@H]1[C@H](O)[C@@](C)(O)[C@H]2[C@H](O)[C@@H](Cl)CCN12	> 40 µM	> 40 µM
